Experimental data as given in patent publication US20020137929A1, “1 - (3-heterocyclylphenyl) isothiourea, -isourea, -guanidine and -amidine herbicidal agents” (Intellectual Property Department, BASF Aktiengesellschaft, priority 1998, published 2002).

What was measured:
CYPSE (Flatsedge) = experiment: Postemergence weed control under flooded paddy conditions; assay type: in vivo, Cyperus serotinus; conditions: postemergence weeds, 3-4 weeks after treatment
Summary of the method: (§1)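 Containers holding 3–5 cm weeds and rice at 1.5–2.5 leaves are flooded to 1.5–3 cm above soil. Compound in 50/50 v/v aqueous/acetone is then added directly to the water, about 0.0313–0.500 kg/ha. Plants are kept in the greenhouse and rated 0–9 visually at 3–4 weeks.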

[1] = system: GLXMAW (Soybean, Williams); experiment: Postemergence herbicidal evaluation; assay type: in vivo, Glycine max, (L.) Merr. cv Williams; conditions: postemergence
Summary of the method: (§2)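 Seedlings grown about two weeks were sprayed at 40 psi with compound dispersed in 50/50 acetone/water plus 0.5% TWEEN 20, at about 0.0156 to 0.500 kg/ha. Plants were kept in the greenhouse and scored 4–5 weeks later on a 0–9 visual scale against untreated controls.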

[2] = system: ECHORC (Watergrass (Calif.)); experiment: Postemergence weed control under flooded paddy conditions; assay type: in vivo, Echinochloa oryzoides; conditions: postemergence weeds, 3-4 weeks after treatment
Summary of the method: as §1

[3] = system: TRZAWR (Wheat, Winter, cv Riband); experiment: Postemergence herbicidal evaluation; assay type: in vivo, Triticum aestivum; conditions: postemergence
Summary of the method: as §2

[4] = system: SAGPY (Arrowhead (Pygmaea)); experiment: Postemergence weed control under flooded paddy conditions; assay type: in vivo, Sagittaria pygmaea; conditions: postemergence weeds, 3-4 weeks after treatment
Summary of the method: as §1

SETVI (Foxtail, Green) [5] = experiment: Preemergence herbicidal evaluation; assay type: in vivo, Setaria viridis; conditions: rated 4-5 weeks after treatment
Summary of the method: (§3)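 Scores (0–9) reflect visual comparison with control plants for stand, vigor, malformation, size and chlorosis. Compound was applied to the soil after sowing, before emergence, as an aqueous acetone spray (about 0.0156–0.500 kg/ha), and cups were kept in a greenhouse for 4–5 weeks.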

SETVI (Foxtail, Green) [6] = experiment: Postemergence herbicidal evaluation; assay type: in vivo, Setaria viridis; conditions: postemergence
Summary of the method: as §2

CYPIR (Rice Flatsedge) = experiment: Preemergence weed control under flooded paddy conditions; assay type: in vivo, Cyperus iria; conditions: rated 3-4 weeks after treatment
Summary of the method: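 Flooded-pot preemergence screen with silt loam and seeds in the upper 0.5 cm. Dose about 0.0313 to 0.500 kg/ha, delivered into flood water; visual 0-9 score after 3 to 4 weeks.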

AMBEL (Ragweed, Common) = experiment: Preemergence herbicidal evaluation; assay type: in vivo, Ambrosia artemisifolia; conditions: rated 4-5 weeks after treatment
Summary of the method: as §3

GALAP (Galium) = experiment: Preemergence herbicidal evaluation; assay type: in vivo, Galium aparine; conditions: rate 0.0313 kg/ha; rated 4-5 weeks after treatment
Summary of the method: as §3

[7] = system: CHEAL (Lambsquarters, Common); experiment: Postemergence herbicidal evaluation; assay type: in vivo, Chenopodium album; conditions: postemergence
Summary of the method: as §2

ORYSAT (Rice, Tebonnet) = experiment: Postemergence herbicidal evaluation; assay type: in vivo, Oryza sativa, (L.) Tebonnet; conditions: postemergence
Summary of the method: as §2

ZEAMX (Corn, Field) = experiment: Postemergence herbicidal evaluation; assay type: in vivo, Zea mays; conditions: postemergence
Summary of the method: as §2

ABUTH (Velvetleaf) = experiment: Postemergence herbicidal evaluation; assay type: in vivo, Abutilon theophrasti; conditions: postemergence
Summary of the method: as §2

With `O=C1CSC(=Nc2cc(N3C(=O)C4=C(CCCC4)C3=O)c(F)cc2Cl)N1c1ccccc1` [Compound 3, N-{4-chloro-2-fluoro-5-[(4-oxo-3-phenyl-2-thiazolidinylidene)amino]phenyl}-1-cyclohexene-1,2-dicarboximide] the “Herbicidal rating CYPSE” value (CYPSE (Flatsedge); rate 0.0625 kg/ha) was 0.0, the “Herbicidal rating CYPSE” value (CYPSE (Flatsedge); rate 0.1250 kg/ha) was 0.0 and the “Herbicidal rating CYPSE” value (CYPSE (Flatsedge); rate 0.2500 kg/ha) was 0.0. For the same compound, the “Herbicidal rating CYPSE” value (CYPSE (Flatsedge); rate 0.5000 kg/ha) was 0.0, the GLXMAW herbicidal rating ([1]; rate 0.0157 kg/ha) was 2.5 and the GLXMAW herbicidal rating ([1]; rate 0.0313 kg/ha) was 3.5. It also gave a GLXMAW herbicidal rating ([1]; rate 0.0625 kg/ha) of 3.0, a GLXMAW herbicidal rating ([1]; rate 0.1250 kg/ha) of 4.0 and a GLXMAW herbicidal rating ([1]; rate 0.2500 kg/ha) of 4.0. The GLXMAW herbicidal rating ([1]; rate 0.5000 kg/ha) was 4.5, the “Herbicidal rating ECHORC” value ([2]; rate 0.0625 kg/ha) was 0.0 and the “Herbicidal rating ECHORC” value ([2]; rate 0.1250 kg/ha) was 0.0. For the same compound, the “Herbicidal rating ECHORC” value ([2]; rate 0.2500 kg/ha) was 1.0, the “Herbicidal rating ECHORC” value ([2]; rate 0.5000 kg/ha) was 2.0 and the TRZAWR herbicidal rating ([3]; rate 0.0157 kg/ha) was 2.5. It also gave a TRZAWR herbicidal rating ([3]; rate 0.0313 kg/ha) of 2.5, a TRZAWR herbicidal rating ([3]; rate 0.0625 kg/ha) of 3.0 and a TRZAWR herbicidal rating ([3]; rate 0.1250 kg/ha) of 2.5. For the same compound, the TRZAWR herbicidal rating ([3]; rate 0.2500 kg/ha) was 3.0, the TRZAWR herbicidal rating ([3]; rate 0.5000 kg/ha) was 4.0 and the “Herbicidal rating SAGPY” value ([4]; rate 0.0625 kg/ha) was 0.0. For the same compound, the “Herbicidal rating SAGPY” value ([4]; rate 0.1250 kg/ha) was 0.0, the “Herbicidal rating SAGPY” value ([4]; rate 0.2500 kg/ha) was 0.0 and the “Herbicidal rating SAGPY” value ([4]; rate 0.5000 kg/ha) was 0.0. The “SETVI preemergence herbicidal rating” value (SETVI (Foxtail, Green) [5]; rate 0.0313 kg/ha) was 0.0, the “SETVI preemergence herbicidal rating” value (SETVI (Foxtail, Green) [5]; rate 0.0625 kg/ha) was 4.0 and the “SETVI preemergence herbicidal rating” value (SETVI (Foxtail, Green) [5]; rate 0.1250 kg/ha) was 4.0. For the same compound, the “SETVI preemergence herbicidal rating” value (SETVI (Foxtail, Green) [5]; rate 0.2500 kg/ha) was 4.0, the “SETVI preemergence herbicidal rating” value (SETVI (Foxtail, Green) [5]; rate 0.5000 kg/ha) was 9.0 and the SETVI herbicidal rating (SETVI (Foxtail, Green) [6]; rate 0.0157 kg/ha) was 0.0. For the same compound, the SETVI herbicidal rating (SETVI (Foxtail, Green) [6]; rate 0.0313 kg/ha) was 0.0, the SETVI herbicidal rating (SETVI (Foxtail, Green) [6]; rate 0.0625 kg/ha) was 0.0 and the SETVI herbicidal rating (SETVI (Foxtail, Green) [6]; rate 0.1250 kg/ha) was 0.0. The SETVI herbicidal rating (SETVI (Foxtail, Green) [6]; rate 0.2500 kg/ha) was 0.0, the SETVI herbicidal rating (SETVI (Foxtail, Green) [6]; rate 0.5000 kg/ha) was 0.0 and the “Herbicidal rating CYPIR” value (CYPIR (Rice Flatsedge); 0.0625 kg/ha) was 0.0. The “Herbicidal rating CYPIR” value (CYPIR (Rice Flatsedge); 0.1250 kg/ha) was 0.0, the “Herbicidal rating CYPIR” value (CYPIR (Rice Flatsedge); 0.2500 kg/ha) was 0.0 and the “Herbicidal rating CYPIR” value (CYPIR (Rice Flatsedge); 0.5000 kg/ha) was 0.0. The “AMBEL preemergence herbicidal rating” value (AMBEL (Ragweed, Common); rate 0.0313 kg/ha) was 0.0, the “AMBEL preemergence herbicidal rating” value (AMBEL (Ragweed, Common); rate 0.0625 kg/ha) was 0.0 and the “AMBEL preemergence herbicidal rating” value (AMBEL (Ragweed, Common); rate 0.1250 kg/ha) was 2.0. The “AMBEL preemergence herbicidal rating” value (AMBEL (Ragweed, Common); rate 0.2500 kg/ha) was 2.0, the “AMBEL preemergence herbicidal rating” value (AMBEL (Ragweed, Common); rate 0.5000 kg/ha) was 7.0 and the “GALAP preemergence herbicidal rating” value (GALAP (Galium)) was 4.0. For the same compound, the CHEAL herbicidal rating ([7]; rate 0.0313 kg/ha) was 7.0, the CHEAL herbicidal rating ([7]; rate 0.0625 kg/ha) was 6.0 and the CHEAL herbicidal rating ([7]; rate 0.1250 kg/ha) was 9.0. It also gave a CHEAL herbicidal rating ([7]; rate 0.2500 kg/ha) of 9.0, a CHEAL herbicidal rating ([7]; rate 0.5000 kg/ha) of 9.0 and an ORYSAT herbicidal rating (ORYSAT (Rice, Tebonnet); rate 0.0157 kg/ha) of 2.0. For the same compound, the ORYSAT herbicidal rating (ORYSAT (Rice, Tebonnet); rate 0.0313 kg/ha) was 2.5, the ORYSAT herbicidal rating (ORYSAT (Rice, Tebonnet); rate 0.0625 kg/ha) was 3.0 and the ORYSAT herbicidal rating (ORYSAT (Rice, Tebonnet); rate 0.1250 kg/ha) was 3.0. It also gave an ORYSAT herbicidal rating (ORYSAT (Rice, Tebonnet); rate 0.2500 kg/ha) of 2.0, an ORYSAT herbicidal rating (ORYSAT (Rice, Tebonnet); rate 0.5000 kg/ha) of 3.5 and a ZEAMX herbicidal rating (ZEAMX (Corn, Field); rate 0.0157 kg/ha) of 3.0. The ZEAMX herbicidal rating (ZEAMX (Corn, Field); rate 0.0313 kg/ha) was 3.0, the ZEAMX herbicidal rating (ZEAMX (Corn, Field); rate 0.0625 kg/ha) was 3.0 and the ZEAMX herbicidal rating (ZEAMX (Corn, Field); rate 0.1250 kg/ha) was 3.0. It also gave a ZEAMX herbicidal rating (ZEAMX (Corn, Field); rate 0.2500 kg/ha) of 3.5, a ZEAMX herbicidal rating (ZEAMX (Corn, Field); rate 0.5000 kg/ha) of 3.5 and an ABUTH herbicidal rating (ABUTH (Velvetleaf); rate 0.0157 kg/ha) of 6.0. It also gave an ABUTH herbicidal rating (ABUTH (Velvetleaf); rate 0.0313 kg/ha) of 6.0, an ABUTH herbicidal rating (ABUTH (Velvetleaf); rate 0.0625 kg/ha) of 6.0 and an ABUTH herbicidal rating (ABUTH (Velvetleaf); rate 0.1250 kg/ha) of 9.0. It also gave an ABUTH herbicidal rating (ABUTH (Velvetleaf); rate 0.2500 kg/ha) of 6.0 and an ABUTH herbicidal rating (ABUTH (Velvetleaf); rate 0.5000 kg/ha) of 9.0.
